Data reported in PubChem BioAssay AID328 (DTP/NCI, 2004).
“And” between values parts separate entries of the source, which are not always exact repeats. Identical values can stand only once. Toxic doses and inconclusive results are not listed. Rule for the calls: active = survival T/C of 150% or more; inactive = T/C below 125% in these data.

Tested on: BDF1 mice, P388 leukemia ip, median survival T/C
Assay: NCI In Vivo Anticancer Drug Screen. Data for tumor model P388 Leukemia (intraperitoneal) in B6D2F1 (BDF1) mice
Conditions: endpoint: median survival time, higher = longer survival
Method in brief: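 Vehicle-dosed animals serve as the reference; survival of compound-dosed, tumour-implanted mice is divided by it.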

[1] = dose: 50.0 mg/kg/injection, schedule: Q01DX009 (ip), vehicle: saline with Tween-80
[2] = dose: 100.0 mg/kg/injection, schedule: Q01DX009 (ip), vehicle: saline with Tween-80
[3] = dose: 200.0 mg/kg/injection, schedule: Q01DX009 (ip), vehicle: saline with Tween-80
[4] = dose: 100.0 mg/kg/injection, schedule: Q01DX001 (ip), vehicle: Klucel (hydroxypropylcellulose) (HPC)
[5] = dose: 200.0 mg/kg/injection, schedule: Q01DX001 (ip), vehicle: Klucel (hydroxypropylcellulose) (HPC)
[6] = dose: 400.0 mg/kg/injection, schedule: Q01DX001 (ip), vehicle: Klucel (hydroxypropylcellulose) (HPC)
[7] = dose: 100.0 mg/kg/injection, schedule: Q04DX003 (ip), vehicle: Klucel (hydroxypropylcellulose) (HPC)
[8] = dose: 200.0 mg/kg/injection, schedule: Q04DX003 (ip), vehicle: Klucel (hydroxypropylcellulose) (HPC)
[9] = dose: 400.0 mg/kg/injection, schedule: Q04DX003 (ip), vehicle: Klucel (hydroxypropylcellulose) (HPC)
[10] = dose: 25.0 mg/kg/injection, schedule: Q01DX009 (ip), vehicle: saline with Tween-80
[11] = dose: 100.0 mg/kg/injection, schedule: Q04DX003 (ip), vehicle: saline with Tween-80
[12] = dose: 200.0 mg/kg/injection, schedule: Q04DX003 (ip), vehicle: saline with Tween-80
[13] = dose: 400.0 mg/kg/injection, schedule: Q04DX003 (ip), vehicle: saline with Tween-80

Measured: T/C

COc1ccc(CN(CCOC(=O)c2ccc(OC)cc2)CCN(CCOC(=O)c2ccc(OC)cc2)Cc2ccc(OC)cc2)cc1
inactive: dose: 25.0 mg/kg/injection, schedule: Q01DX009 (ip), vehicle: other 89 % of control | dose: 25.0 mg/kg/injection, schedule: Q01DX009 (ip), vehicle: water 93 % of control | dose: 25.0 mg/kg/injection, schedule: Q04DX003 (ip), vehicle: water 95 % of control and 100 % of control | dose: 50.0 mg/kg/injection, schedule: Q01DX009 (ip), vehicle: other 91 % of control | dose: 50.0 mg/kg/injection, schedule: Q01DX009 (ip), vehicle: water 101 % of control | dose: 100.0 mg/kg/injection, schedule: Q01DX009 (ip), vehicle: other 86 % of control | dose: 200.0 mg/kg/injection, schedule: Q01DX009 (ip), vehicle: other 94 % of control | dose: 200.0 mg/kg/injection, schedule: Q01DX009 (ip), vehicle: water 110 % of control | dose: 300.0 mg/kg/injection, schedule: Q04DX003 (ip), vehicle: water 107 % of control | dose: 400.0 mg/kg/injection, schedule: Q01DX009 (ip), vehicle: water 95 % of control

O=C(O)O.[Mn]
inactive: dose: 100.0 mg/kg/injection, schedule: Q01DX010 (ip), vehicle: water 86 % of control and 93 % of control | dose: 200.0 mg/kg/injection, schedule: Q01DX010 (ip), vehicle: water 91 % of control | dose: 400.0 mg/kg/injection, schedule: Q01DX010 (ip), vehicle: water 77 % of control | dose: 800.0 mg/kg/injection, schedule: Q01DX010 (ip), vehicle: water 83 % of control and 86 % of control

CC(=O)Nc1cccc([N+](=O)[O-])c1
inactive: [1] 100 % of control | [2] 100 % of control | [3] 104 % of control

CCCCCCCCCCCCCCOc1ccc(C=O)cc1OC
inactive: [4] 100 % of control | [5] 100 % of control | [6] 100 % of control

ICCCCCCCCCC[n+]1ccc2ccccc2c1
inactive: dose: 12.5 mg/kg/injection, schedule: Q01DX005 (ip), vehicle: saline with Tween-80 120 % of control | dose: 25.0 mg/kg/injection, schedule: Q01DX005 (ip), vehicle: saline with Tween-80 122 % of control

O=[N+]([O-])c1cccc(N/N=C\c2c(Cl)n(-c3ccccc3)c3ccccc23)c1
inactive: dose: 100.0 mg/kg/injection, schedule: Q04DX002 (ip), vehicle: Klucel (hydroxypropylcellulose) (HPC) 97 % of control | dose: 200.0 mg/kg/injection, schedule: Q04DX002 (ip), vehicle: Klucel (hydroxypropylcellulose) (HPC) 93 % of control | dose: 400.0 mg/kg/injection, schedule: Q04DX002 (ip), vehicle: Klucel (hydroxypropylcellulose) (HPC) 99 % of control

N\C([S-])=N/N=C\C(=N/N=C(\N)[S-])C(O)C(O)C(O)CO.[Rh+2] (stereo unspecified)
inactive: [4] 100 % of control | [5] 104 % of control | [6] 109 % of control

Cc1ccc(-n2c(=S)[nH]c3ccccc3c2=O)cc1C
inactive: dose: 100.0 mg/kg/injection, schedule: Q01DX009 (ip), vehicle: Klucel (hydroxypropylcellulose) (HPC) 100 % of control | [7] 105 % of control | dose: 200.0 mg/kg/injection, schedule: Q01DX009 (ip), vehicle: Klucel (hydroxypropylcellulose) (HPC) 86 % of control | [8] 100 % of control | dose: 400.0 mg/kg/injection, schedule: Q01DX009 (ip), vehicle: Klucel (hydroxypropylcellulose) (HPC) 91 % of control | [9] 100 % of control

CC(CN1c2ccccc2Sc2ccccc21)N(C)C (stereo unspecified)
inactive: dose: 18.75 mg/kg/injection, schedule: Q01DX009 (ip), vehicle: saline 100 % of control | dose: 37.5 mg/kg/injection, schedule: Q04DX003 (ip), vehicle: saline 121 % of control | dose: 75.0 mg/kg/injection, schedule: Q04DX003 (ip), vehicle: saline 117 % of control | dose: 150.0 mg/kg/injection, schedule: Q04DX003 (ip), vehicle: saline 95 % of control

CN(C=C(C#N)C#N)c1ccccc1
inactive: [1] 105 % of control

Cc1ccn(/C(N)=N/C(=S)Nc2ccccc2)n1
inactive: dose: 37.5 mg/kg/injection, schedule: Q01DX009 (ip), vehicle: saline with Tween-80 108 % of control | dose: 75.0 mg/kg/injection, schedule: Q01DX009 (ip), vehicle: saline with Tween-80 90 % of control | dose: 150.0 mg/kg/injection, schedule: Q01DX009 (ip), vehicle: saline with Tween-80 114 % of control

CCNc1nc2ncnc(NCC)c2[nH]1
inactive: dose: 3.13 mg/kg/injection, schedule: Q01DX009 (ip), vehicle: saline with Tween-80 94 % of control | dose: 6.25 mg/kg/injection, schedule: Q01DX009 (ip), vehicle: saline with Tween-80 103 % of control | dose: 12.5 mg/kg/injection, schedule: Q01DX009 (ip), vehicle: saline with Tween-80 100 % of control | [10] 101 % of control

Clc1cc(C(Cl)(Cl)Cl)c(Cl)cc1C(Cl)(Cl)Cl
inactive: [11] 100 % of control | [12] 105 % of control | [13] 110 % of control

CS(=O)CC(O)(c1ccccc1)c1cccs1 (stereo unspecified)
inactive: [1] 100 % of control | [2] 93 % of control | [3] 100 % of control

CC(=O)c1ccccc1Br
inactive: [4] 95 % of control | [7] 95 % of control | [5] 108 % of control | [8] 100 % of control | [6] 100 % of control | [9] 100 % of control

Cc1ccc(S(=O)(=O)Cl)c(Cl)c1
inactive: [10] 100 % of control | [1] 116 % of control | dose: 50.0 mg/kg/injection, schedule: Q04DX003 (ip), vehicle: saline with Tween-80 104 % of control | [2] 112 % of control | [11] 113 % of control

O=C(O)C1(NO)CCCC1
inactive: dose: 100.0 mg/kg/injection, schedule: Q01DX009 (ip), vehicle: saline 95 % of control | dose: 200.0 mg/kg/injection, schedule: Q01DX009 (ip), vehicle: saline 104 % of control

C[C@]12CC[C@H]3[C@@H](CCC4=C[C@@H](OC5OCC(OC6OC(CO)C(O)C(O)C6O)C(O)C5O)CC[C@@]43C=O)[C@@]1(O)CCC2C1=CC(=O)OC1 (stereo partly specified)
inactive: dose: 2.5 mg/kg/injection, schedule: Q01DX009 (ip), vehicle: saline 122 % of control | dose: 5.0 mg/kg/injection, schedule: Q01DX009 (ip), vehicle: saline 111 % of control

CCN(CC)CCCC(C)NC(=O)c1ccc2c(c1)C(=O)c1ccccc1C2=O (stereo unspecified)
inactive: dose: 50.0 mg/kg/injection, schedule: Q01DX005 (ip), vehicle: saline 98 % of control | dose: 100.0 mg/kg/injection, schedule: Q01DX005 (ip), vehicle: saline 89 % of control

CC(=O)Oc1cc(OC(C)=O)c2c(ccc3ccccc32)c1
inactive: [11] 93 % of control | [12] 97 % of control | [13] 93 % of control

CO[C@H]1/C=C/O[C@@]2(C)Oc3c(C)c(O)c4c(O)c(c(/C=N/N5CCN(C)CC5)c(O)c4c3C2=O)NC(=O)/C(C)=C\C=C\[C@H](C)[C@H](O)[C@@H](C)[C@@H](O)[C@@H](C)[C@H](OC(C)=O)[C@@H]1C
inactive: dose: 50.0 mg/kg/injection, schedule: Q01DX010 (ip), vehicle: saline 109 % of control | dose: 100.0 mg/kg/injection, schedule: Q01DX010 (ip), vehicle: saline 114 % of control | dose: 200.0 mg/kg/injection, schedule: Q01DX010 (ip), vehicle: saline 109 % of control | dose: 400.0 mg/kg/injection, schedule: Q01DX010 (ip), vehicle: saline 109 % of control
